Laboratory results reported in patent US20110014164A1, “EFFICIENT INDUCTION OF PLURIPOTENT STEM CELLS USING SMALL MOLECULE COMPOUNDS” (PRESIDENT AND FELLOWS OF HARVARD COLLEGE, priority 2008, published 2011).

Legend:
[1] = system: primary human fibroblasts, BJ and NHDF, infected by Oct4, Sox2 and Klf4; experiment: iPS colony induction in 3-factor (Oct4, Sox2, Klf4) infected human fibroblasts; format: cell-based
Description: AP^+ colonies were compared for 3-factor (Oct4, Sox2 and Klf4) infected BJ fibroblasts with or without VPA treatment at 25 days post-infection.
Human fibroblasts were first infected by Moloney murine leukemia retroviruses expressing the Oct4, Sox2 and Klf4 genes, and treated with VPA for 1 to 2 weeks.
Human fibroblasts were infected by different transcription factor combinations, and replated in fibroblast medium typically at 2×10^5 cells per well in gelatin-coated 6-well plates at 0 day post-infection. Cells were cultured in hES cell media starting from 1 day post-infection.

[2] = system: MEFs infected with Oct4, Sox2 and Klf4; experiment: GFP positive iPS colony number in 3-factor infected MEFs; format: cell-based, mouse
Description: FIG. 2(c) Representative pictures at 16 days post-infection showing a significant increase of GFP positive iPS colonies in 3-factor infected MEFs with VPA treatment compared to non-treated control.
(§1) Retroviral introduction of c-Myc could cause tumorigenecity in cells derived from the iPS cells thus generated^2. […] Similar low efficiency was also reported for induction of iPS cells from mouse fibroblasts without c-Myc^24. We tested whether treating the cells with 5′-azaC or VPA improves the efficiency of iPS colony formation without the need for c-Myc. MEFs were first infected with Oct4, Sox2 and Klf4, then treated with 5′-azaC or VPA for a week starting 1 day post-infection. […] Consistent with the FACS data, a 30-40 fold increase of GFP positive colonies was observed compared to control MEFs without treatment (FIG. 2c). This allowed for picking of iPS colonies within two weeks post-infection, sooner than the typical ˜30 days post-infection or later without chemical treatment^13, 24.
For the generation of mouse iPS cells, infected MEFs were cultured in mouse ES cell media until iPS colonies were ready to be picked. In some experiments, knockout serum replacement was used instead of the Hyclone FBS in the mouse ES cell media, which appeared to accelerate the reprogramming process, consistent with a recent report^26. […]

[3] = system: human BJ and NHDF cells infected by Oct4 and Sox2; experiment: iPS induction in 2-factor (Oct4, Sox2) infected human fibroblasts; format: cell-based; details: both with VPA treatment
Description: b. In the published reprogramming protocol, infected human fibroblasts are typically cultured in fibroblast media first, then reseeded on feeders and switched to hES cell media about a week post-infection. In the modified protocol, human fibroblasts were replated immediately after infection, treated with VPA in hES media, and subsequently cultured in hES media.
c. The efficiency of iPS colony induction by 3 factors (Oct4, Sox2 and Klf4) and 2 factors (Oct4 and Sox2) with VPA treatment are plotted. Each dot represents one experiment; each bar represents the average for each condition.
Encouraged by the more efficient 3-factor reprogramming with VPA treatment, we explored the possibility of eliminating some of the transcription factors. The modified induction method with VPA treatment (FIG. 9b) was applied to human BJ and NHDF cells infected by different 2-factor combinations, and AP^+ iPS colonies were identified about 1 month post-infection in fibroblasts infected by Oct4 and Sox2. Karyotypically normal iPS cell lines (Table 2) were established from 2-factor infected human fibroblasts. On average, between 1 and 5 iPS lines were successfully established out of every 100,000 BJ or NHDF cells infected by Oct4 and Sox2 (FIG. 9c). […] The efficiency of reprogramming by 2 factors, however, was ˜100 fold lower than that by 3 factors both with VPA treatment. […]

[4] = system: MEFs infected with the four factors (Oct4, Sox2, Klf4 and c-Myc); experiment: cells; format: cell-based, mouse; details: Mus musculus; 4-factor infected MEFs; dose response; read-out: EC50 of reprogramming efficiency (percentage of Oct4-GFP positive cells induced)
[5] = system: MEFs infected with Oct4, Sox2, Klf4 (but no c-Myc); experiment: Reprogramming efficiency of 3-factor infected Oct4-GFP MEFs, FACS analysis; format: cell-based, mouse; details: 2 mM for a week; FACS 10 days post-infection; 3-factor infected MEFs
Protocol: FIG. 2(a) MEFs infected with Oct4, Sox2, Klf4 (but no c-Myc) were treated with 5′-azaC (2 μM) or VPA (2 mM) for a week, the percentage of Oct4-GFP positive cells induced was measured through FACS analysis at 10 days post-infection, and compared to infected MEFs without treatment. n=4 for each condition.
as §1
Moloney-based retroviral vector (pMXs) containing the murine complementary DNAs of Oct4, Sox2, c-Myc, and Klf4 were obtained from Addgene^1. […]

## CCCC(CCC)C(=O)O [VPA, valproic acid]
[1]; human skin cells infected with the three factors
  promotion of the efficiency of iPS colony formation: ~30 fold
[1]; optimized induction protocol together with VPA treatment
  improvement over the first report on reprogramming by the same 3-factor combination (<0.001%): 1000 fold
[2]
  increase of GFP positive colonies compared to control MEFs without treatment: 30-40 fold
[3]
  efficiency of reprogramming by 2 factors lower than by 3 factors: ~100 fold
[4]
  EC50: 1900 µM
[5]
  improvement of reprogramming efficiency: 50 fold
